From ChEMBL document CHEMBL4422615, “Novel non-xanthine antagonist of the A2B adenosine receptor: From HTS hit to lead structure” (Eur J Med Chem, 2019)
The source made the active and inactive calls. The calls are words filed in the database; no cut-off is given here.

Tests used:
[1] = MRT in dog at 0.3 mg/kg, iv administered as infusion for 15 mins by HPLC-MS/MS analysis; assay type: ADME, organism-based, Canis lupus familiaris; settings: in vivo
[2] = system: Mus musculus; assay: Antifibrotic activity in FITC-induced C57BL/6J mouse pulmonary fibrosis model assessed as reduction in osteopontin level in lung at 100 to 500 mg/kg, bid administered via gavage pretreated for 45 mins before FITC addition until 72 hrs after FITC application by ELISA; assay type: functional, organism-based
[3] = target: T1, Cytochrome P450 3A4 (Homo sapiens, UniProt P08684); assay: Inhibition of CYP3A4 in human liver microsomes using midazolam as substrate preincubated for 30 mins followed by substrate addition measured after 10 mins in presence of NADPH by LC-MS/MS analysis; assay type: ADME
[4] = target: T2, Adenosine receptor A3 (Homo sapiens, UniProt P0DMS8); assay: Antagonist activity at recombinant human A3 adenosine receptor expressed in CHO cells after 3 to 4 hrs by luciferase reporter gene assay; assay type: cell-based
T2 sequence (P0DMS8 whole entry): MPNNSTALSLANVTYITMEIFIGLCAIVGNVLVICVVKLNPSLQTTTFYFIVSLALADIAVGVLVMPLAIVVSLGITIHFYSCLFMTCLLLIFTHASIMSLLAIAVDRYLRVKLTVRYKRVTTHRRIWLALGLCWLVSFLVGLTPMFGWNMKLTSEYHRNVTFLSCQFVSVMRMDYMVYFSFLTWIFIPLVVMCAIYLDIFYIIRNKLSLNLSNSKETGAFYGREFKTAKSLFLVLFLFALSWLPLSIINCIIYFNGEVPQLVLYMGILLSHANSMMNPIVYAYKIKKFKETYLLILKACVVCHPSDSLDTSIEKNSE

[5] = MRT in rat at 1 mg/kg, po for 15 mins by HPLC-MS/MS analysis; assay type: ADME, organism-based; settings: in vivo
[6] = target: Adenosine receptor A2a (Mus musculus, UniProt Q60613); assay: Antagonist activity at recombinant mouse A2A adenosine receptor expressed in CHO cells after 3 to 4 hrs by luciferase reporter gene assay; assay type: cell-based
[7] = target: Adenosine receptor A2a (Homo sapiens, UniProt P29274); assay: Antagonist activity at recombinant human A2A adenosine receptor expressed in CHO cells after 3 to 4 hrs by luciferase reporter gene assay; assay type: cell-based
[8] = Half life in rat at 1 mg/kg, po for 15 mins by HPLC-MS/MS analysis; assay type: ADME, organism-based; settings: in vivo
[9] = target: T2, Adenosine receptor A3; assay: Displacement of [125I]AB-MECA from human A3 adenosine receptor expressed in HEK293 cell membranes after 120 mins by radioligand displacement assay
[10] = target: Adenosine receptor A2a (Rattus norvegicus, UniProt P30543); assay: Antagonist activity at recombinant rat A2A adenosine receptor expressed in CHO cells after 3 to 4 hrs by luciferase reporter gene assay; assay type: cell-based
[11] = species: Homo sapiens; assay: (§1) Anti-inflammatory activity in human LL29 cells assessed as reduction in NECA-induced IL6 level after 24 hrs by ELISA; assay type: functional, cell-based
[12] = as §1; assay type: functional, cell-based
[13] = MRT in mouse at 0.3 mg/kg, iv administered as bolus dose by HPLC-MS/MS analysis; assay type: ADME, organism-based; settings: in vivo
[14] = Blood clearance in mouse by measuring intrinsic clearance in mouse liver microsomes by MS/MS analysis; assay type: ADME
[15] = Half life in rat at 0.3 mg/kg, iv administered as infusion for 15 mins by HPLC-MS/MS analysis; assay type: ADME, organism-based; settings: in vivo
[16] = Dose normalized AUC in dog at 0.3 mg/kg, iv administered as infusion for 15 mins by HPLC-MS/MS analysis; assay type: ADME, organism-based, Canis lupus familiaris; settings: in vivo, 0.25 h
[17] = Half life in dog at 0.3 mg/kg, iv administered as infusion for 15 mins by HPLC-MS/MS analysis; assay type: ADME, organism-based, Canis lupus familiaris; settings: in vivo
[18] = Oral bioavailability in dog at 1 mg/kg for 15 mins by HPLC-MS/MS analysis; assay type: ADME, organism-based, Canis lupus familiaris; settings: in vivo
[19] = target: Cytochrome P450 2C9 (Homo sapiens, UniProt P11712); assay: Inhibition of CYP2C9 in human liver microsomes using diclofenac as substrate after 15 mins in presence of NADPH by LC-MS/MS analysis; assay type: ADME
[20] = target: T3, Adenosine receptor A2b (Homo sapiens, UniProt P29275); assay: Displacement of [3H]DPCPX from human A2B adenosine receptor expressed in HEK293 cell membranes after 60 mins by radioligand displacement assay
T3 sequence (P29275 whole entry): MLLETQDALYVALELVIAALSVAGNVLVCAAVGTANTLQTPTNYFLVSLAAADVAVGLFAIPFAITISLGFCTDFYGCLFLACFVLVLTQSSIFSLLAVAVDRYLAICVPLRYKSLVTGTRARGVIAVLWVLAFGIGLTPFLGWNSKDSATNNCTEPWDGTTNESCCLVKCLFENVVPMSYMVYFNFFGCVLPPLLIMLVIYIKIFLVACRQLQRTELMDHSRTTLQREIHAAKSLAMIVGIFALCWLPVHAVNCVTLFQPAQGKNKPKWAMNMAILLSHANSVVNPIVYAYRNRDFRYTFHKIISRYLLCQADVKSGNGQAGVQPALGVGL

[21] = Clearance in rat blood at 0.3 mg/kg, iv administered as bolus dose by HPLC-MS/MS analysis; assay type: ADME, organism-based
[22] = Blood clearance in human by measuring intrinsic clearance in human liver microsomes by MS/MS analysis; assay type: ADME
[23] = Efflux ratio in human Caco2 cells; assay type: ADME, cell-based; settings: Caco-2
[24] = Clearance in dog blood at 0.3 mg/kg, iv administered as bolus dose by HPLC-MS/MS analysis; assay type: ADME, organism-based, Canis lupus familiaris
[25] = target: T4, Adenosine receptor A1 (Mus musculus, UniProt Q60612); assay: Antagonist activity at recombinant mouse A1 adenosine receptor expressed in CHO cells after 3 to 4 hrs by luciferase reporter gene assay; assay type: cell-based
T4 sequence (Q60612 whole entry): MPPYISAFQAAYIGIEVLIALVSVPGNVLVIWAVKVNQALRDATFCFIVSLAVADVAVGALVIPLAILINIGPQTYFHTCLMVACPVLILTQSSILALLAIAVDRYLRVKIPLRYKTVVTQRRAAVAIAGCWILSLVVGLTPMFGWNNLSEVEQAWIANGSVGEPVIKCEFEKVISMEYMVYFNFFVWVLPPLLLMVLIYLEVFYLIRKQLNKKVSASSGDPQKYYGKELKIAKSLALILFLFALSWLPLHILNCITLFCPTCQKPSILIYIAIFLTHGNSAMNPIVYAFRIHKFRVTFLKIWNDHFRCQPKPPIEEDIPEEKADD

[26] = target: T1, Cytochrome P450 3A4; assay: Time dependent inhibition of human liver microsomes CYP3A4 using midazolam as substrate in presence of NADPH by LC-MS/MS analysis; assay type: ADME
[27] = Blood clearance in rat by measuring Intrinsic clearance in rat hepatocytes by MS/MS analysis; assay type: ADME, cell-based
[28] = Dose normalized AUC in mouse at 0.3 mg/kg, iv administered as bolus dose by HPLC-MS/MS analysis; assay type: ADME, organism-based; settings: in vivo
[29] = Fraction unbound in dog plasma by equilibrium dialysis method; assay type: ADME, cell-free, Canis lupus familiaris
[30] = Dose normalized Cmax in mouse at 1 mg/kg, iv administered as bolus dose by HPLC-MS/MS analysis; assay type: ADME, organism-based; settings: in vivo

T1 sequence (P08684 whole entry): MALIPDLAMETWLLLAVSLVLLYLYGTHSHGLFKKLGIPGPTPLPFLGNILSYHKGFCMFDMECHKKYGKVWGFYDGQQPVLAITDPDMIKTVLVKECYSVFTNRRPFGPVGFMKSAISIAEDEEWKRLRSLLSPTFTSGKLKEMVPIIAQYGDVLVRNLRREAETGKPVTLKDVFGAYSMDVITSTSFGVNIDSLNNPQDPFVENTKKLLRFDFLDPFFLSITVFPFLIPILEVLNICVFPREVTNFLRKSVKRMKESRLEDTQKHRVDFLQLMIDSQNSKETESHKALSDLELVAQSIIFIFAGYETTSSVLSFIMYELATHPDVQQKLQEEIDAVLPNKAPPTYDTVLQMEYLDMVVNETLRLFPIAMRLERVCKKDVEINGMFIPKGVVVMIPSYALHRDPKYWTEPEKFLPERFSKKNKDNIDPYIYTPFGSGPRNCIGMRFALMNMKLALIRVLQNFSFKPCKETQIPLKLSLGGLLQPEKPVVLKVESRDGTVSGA
Sequence of Adenosine receptor A2a (Mus musculus, UniProt Q60613) (Q60613 whole entry): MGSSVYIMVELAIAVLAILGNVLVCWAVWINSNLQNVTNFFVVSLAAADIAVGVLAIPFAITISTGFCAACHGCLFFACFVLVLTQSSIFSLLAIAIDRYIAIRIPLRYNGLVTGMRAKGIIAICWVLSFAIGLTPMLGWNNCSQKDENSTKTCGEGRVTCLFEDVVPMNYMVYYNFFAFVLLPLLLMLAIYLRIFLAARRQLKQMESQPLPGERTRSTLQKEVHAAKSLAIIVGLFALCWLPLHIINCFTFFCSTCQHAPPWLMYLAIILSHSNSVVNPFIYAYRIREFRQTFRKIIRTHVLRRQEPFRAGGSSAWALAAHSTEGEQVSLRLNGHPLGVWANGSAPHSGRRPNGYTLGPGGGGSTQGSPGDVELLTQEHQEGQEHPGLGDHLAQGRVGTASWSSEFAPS
Sequence of Adenosine receptor A2a (Homo sapiens, UniProt P29274) (P29274 whole entry): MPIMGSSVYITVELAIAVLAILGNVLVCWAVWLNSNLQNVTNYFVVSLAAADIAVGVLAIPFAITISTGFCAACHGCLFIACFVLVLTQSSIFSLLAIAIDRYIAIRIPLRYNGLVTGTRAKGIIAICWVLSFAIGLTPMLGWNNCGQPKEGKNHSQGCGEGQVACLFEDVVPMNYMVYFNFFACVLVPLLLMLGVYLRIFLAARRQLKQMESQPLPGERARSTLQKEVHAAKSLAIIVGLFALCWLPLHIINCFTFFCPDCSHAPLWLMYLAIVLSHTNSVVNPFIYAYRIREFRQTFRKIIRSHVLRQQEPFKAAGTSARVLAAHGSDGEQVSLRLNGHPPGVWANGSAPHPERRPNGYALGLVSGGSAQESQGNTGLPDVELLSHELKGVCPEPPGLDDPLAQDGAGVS
Sequence of Cytochrome P450 2C9 (P11712 whole entry): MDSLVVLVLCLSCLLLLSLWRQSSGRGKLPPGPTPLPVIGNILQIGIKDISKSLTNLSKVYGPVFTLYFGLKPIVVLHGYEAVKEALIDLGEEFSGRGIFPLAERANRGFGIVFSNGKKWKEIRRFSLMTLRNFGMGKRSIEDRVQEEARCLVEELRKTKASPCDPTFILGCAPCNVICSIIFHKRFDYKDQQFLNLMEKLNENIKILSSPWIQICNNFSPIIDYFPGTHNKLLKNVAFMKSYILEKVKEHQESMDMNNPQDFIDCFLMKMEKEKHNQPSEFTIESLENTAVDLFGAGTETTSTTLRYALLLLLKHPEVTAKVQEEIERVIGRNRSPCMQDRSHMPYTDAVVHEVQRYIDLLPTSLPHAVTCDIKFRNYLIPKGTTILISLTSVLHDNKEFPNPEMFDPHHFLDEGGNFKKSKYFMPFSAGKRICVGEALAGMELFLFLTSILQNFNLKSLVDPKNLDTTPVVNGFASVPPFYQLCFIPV
Sequence of Adenosine receptor A2a (Rattus norvegicus, UniProt P30543) (P30543 whole entry): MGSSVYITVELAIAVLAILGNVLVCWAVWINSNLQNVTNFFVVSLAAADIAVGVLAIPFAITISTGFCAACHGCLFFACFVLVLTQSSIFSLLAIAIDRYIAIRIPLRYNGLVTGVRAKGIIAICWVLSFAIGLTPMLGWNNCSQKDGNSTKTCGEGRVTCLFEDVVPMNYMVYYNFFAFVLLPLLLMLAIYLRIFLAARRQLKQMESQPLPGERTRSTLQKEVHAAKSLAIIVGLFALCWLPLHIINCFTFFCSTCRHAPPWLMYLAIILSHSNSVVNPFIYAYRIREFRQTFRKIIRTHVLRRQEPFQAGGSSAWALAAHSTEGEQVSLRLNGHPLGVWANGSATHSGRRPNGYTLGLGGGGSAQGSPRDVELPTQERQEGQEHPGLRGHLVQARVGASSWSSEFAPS

Structure (SMILES): CCn1c(=O)c2c(C)c(C(=O)N3CCC(O)CC3)sc2n(CCC(F)(F)F)c1=O
- MRT [1]: 4.9 h
- Activity [2]: inactive
- IC50 [3]: > 20000 nM
- IC50 [4]: > 6700 nM
- MRT [5]: 2 h
- IC50 [6]: 470 nM
- IC50 [7]: 820 nM
- half-life [8]: 1.4 h
- Ki [9]: > 10000 nM
- IC50 [10]: 750 nM
- Activity [11]: Dose-dependent effect
- IC50 [12]: 185 nM
- MRT [13]: 0.65 h
- CLhep predicted [14]: < 8.33 mL/min/kg
- half-life [15]: 1.4 h
- AUC/dose [16]: 2.5 kg·h/L
- half-life [17]: 6.6 h
- bioavailability [18]: 79%
- IC50 [19]: > 20000 nM
- IC50 [20]: 59 to 66 nM
- clearance [21]: 23.3 mL/min/kg
- CLhep predicted [22]: 3.67 mL/min/kg
- efflux ratio [23]: 0.82
- clearance [24]: 7.33 mL/min/kg
- IC50 [25]: > 6700 nM
- TDI [26]: Not Active
- CLhep predicted [27]: 23.3 mL/min/kg
- AUC/dose [28]: 1.6 kg·h/L
- fraction unbound [29]: 0.54
- Cmax/dose [30]: 1.2 kg/L
